Test results as given in PubChem BioAssay AID248 (DTP/NCI, 2004).
Several values for one entry are separate records, joined by “and”; a condition that tells them apart may be missing. Identical values can stand only once. Toxic doses and inconclusive results are not listed.

System: L1210 leukemia ip in BDF1 mice, survival T/C
Test: NCI In Vivo Anticancer Drug Screen. Data for tumor model L1210 Leukemia (intraperitoneal) in B6D2F1 (BDF1) mice
Settings: higher = longer survival
How it was run: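 Survival endpoint. Drug-treated group vs vehicle group, expressed as T divided by C. Tumor passaged by transplantation.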

[1] = endpoint: mean survival time, dose: 100.0 mg/kg/injection, schedule: Q01DX001 (ip), vehicle: carboxymethylcellulose (CMC)
[2] = endpoint: mean survival time, dose: 200.0 mg/kg/injection, schedule: Q01DX001 (ip), vehicle: carboxymethylcellulose (CMC)
[3] = endpoint: mean survival time, dose: 400.0 mg/kg/injection, schedule: Q01DX001 (ip), vehicle: carboxymethylcellulose (CMC)
[4] = endpoint: mean survival time, dose: 50.0 mg/kg/injection, schedule: Q01DX009 (ip), vehicle: saline
[5] = endpoint: mean survival time, dose: 25.0 mg/kg/injection, schedule: Q04DX002 (ip), vehicle: Klucel (hydroxypropylcellulose) (HPC)
[6] = endpoint: mean survival time, dose: 25.0 mg/kg/injection, schedule: Q04DX003 (ip), vehicle: Klucel (hydroxypropylcellulose) (HPC)
[7] = endpoint: mean survival time, dose: 50.0 mg/kg/injection, schedule: Q04DX003 (ip), vehicle: Klucel (hydroxypropylcellulose) (HPC)
[8] = endpoint: mean survival time, dose: 100.0 mg/kg/injection, schedule: Q04DX002 (ip), vehicle: Klucel (hydroxypropylcellulose) (HPC)
[9] = endpoint: mean survival time, dose: 200.0 mg/kg/injection, schedule: Q04DX002 (ip), vehicle: Klucel (hydroxypropylcellulose) (HPC)
[10] = endpoint: mean survival time, dose: 400.0 mg/kg/injection, schedule: Q04DX002 (ip), vehicle: saline with Tween-80
[11] = endpoint: mean survival time, dose: 400.0 mg/kg/injection, schedule: Q04DX003 (ip), vehicle: saline with Tween-80
[12] = endpoint: mean survival time, dose: 100.0 mg/kg/injection, schedule: Q04DX002 (ip), vehicle: saline with Tween-80
[13] = endpoint: mean survival time, dose: 200.0 mg/kg/injection, schedule: Q04DX002 (ip), vehicle: saline with Tween-80
[14] = endpoint: mean survival time, dose: 100.0 mg/kg/injection, schedule: Q04DX003 (ip), vehicle: saline with Tween-80
[15] = endpoint: mean survival time, dose: 200.0 mg/kg/injection, schedule: Q04DX003 (ip), vehicle: saline with Tween-80

## CCCCCCOC(=O)C(N)Cc1ccc(O)c(N(CCCl)CCCl)c1 (configuration not stated)
endpoint: mean survival time, dose: 0.01 mg/kg/injection, schedule: Q01DX009 (ip), vehicle: saline
  T/C: 123 % of control
endpoint: mean survival time, dose: 0.12 mg/kg/injection, schedule: Q01DX001 (ip), vehicle: saline
  T/C: 159 % of control
endpoint: mean survival time, dose: 0.3 mg/kg/injection, schedule: Q01DX009 (ip), vehicle: saline
  T/C: 163 % of control
endpoint: mean survival time, dose: 0.5 mg/kg/injection, schedule: Q01DX001 (ip), vehicle: saline
  T/C: 313 % of control
endpoint: mean survival time, dose: 0.6 mg/kg/injection, schedule: Q01DX009 (ip), vehicle: saline
  T/C: 221 % of control
endpoint: mean survival time, dose: 1.0 mg/kg/injection, schedule: Q01DX001 (ip), vehicle: saline
  T/C: 120 % of control
endpoint: mean survival time, dose: 1.1 mg/kg/injection, schedule: Q01DX009 (ip), vehicle: saline
  T/C: 210 % of control
endpoint: mean survival time, dose: 2.2 mg/kg/injection, schedule: Q01DX001 (ip), vehicle: saline
  T/C: 198 % of control
endpoint: mean survival time, dose: 2.5 mg/kg/injection, schedule: Q01DX001 (ip), vehicle: saline
  T/C: 163 % of control
endpoint: mean survival time, dose: 3.3 mg/kg/injection, schedule: Q01DX001 (ip), vehicle: saline
  T/C: 153 % of control
endpoint: mean survival time, dose: 5.0 mg/kg/injection, schedule: Q01DX001 (ip), vehicle: saline
  T/C: 157 % of control and 236 % of control
endpoint: mean survival time, dose: 1.0 micrograms/kg/injection, schedule: Q01DX009 (ip), vehicle: saline
  T/C: 104 % of control
endpoint: mean survival time, dose: 8.0 micrograms/kg/injection, schedule: Q01DX009 (ip), vehicle: saline
  T/C: 189 % of control

## Cc1cc2c(cc1C)C(=O)C(=O)N2
endpoint: mean survival time, dose: 50.0 mg/kg/injection, schedule: Q01DX001 (ip), vehicle: saline
  T/C: 98 % of control
endpoint: mean survival time, dose: 100.0 mg/kg/injection, schedule: Q01DX001 (ip), vehicle: saline
  T/C: 107 % of control
endpoint: mean survival time, dose: 200.0 mg/kg/injection, schedule: Q01DX001 (ip), vehicle: saline
  T/C: 104 % of control
endpoint: mean survival time, dose: 400.0 mg/kg/injection, schedule: Q01DX001 (ip), vehicle: saline
  T/C: 98 % of control

## CCCCCC/C=C/C#CCCCCCCCC(=O)O
endpoint: mean survival time, dose: 37.5 mg/kg/injection, schedule: Q01DX009 (ip), vehicle: Klucel (hydroxypropylcellulose) (HPC)
  T/C: 105 % of control
endpoint: mean survival time, dose: 75.0 mg/kg/injection, schedule: Q01DX009 (ip), vehicle: Klucel (hydroxypropylcellulose) (HPC)
  T/C: 98 % of control
endpoint: mean survival time, dose: 150.0 mg/kg/injection, schedule: Q01DX009 (ip), vehicle: Klucel (hydroxypropylcellulose) (HPC)
  T/C: 102 % of control

## CN(C)Cc1ccc2ccccc2c1C(O)(c1ccccc1)c1ccccc1
[1]
  T/C: 96 % of control
[2]
  T/C: 98 % of control
[3]
  T/C: 96 % of control

## NC(N)=NC(N)=NC1CCCCC1
[4]
  T/C: 89 % of control
endpoint: mean survival time, dose: 100.0 mg/kg/injection, schedule: Q01DX009 (ip), vehicle: saline
  T/C: 102 % of control
endpoint: mean survival time, dose: 200.0 mg/kg/injection, schedule: Q01DX009 (ip), vehicle: saline
  T/C: 108 % of control

## OCC1(c2ccccc2)OC1(c1ccccc1)c1ccccc1 (configuration not stated)
endpoint: mean survival time, dose: 6.25 mg/kg/injection, schedule: Q04DX002 (ip), vehicle: Klucel (hydroxypropylcellulose) (HPC)
  T/C: 86 % of control
endpoint: mean survival time, dose: 12.5 mg/kg/injection, schedule: Q04DX002 (ip), vehicle: Klucel (hydroxypropylcellulose) (HPC)
  T/C: 101 % of control
[5]
  T/C: 99 % of control and 101 % of control

## Nc1c(Cl)ncnc1Nc1ccc(O)cc1
[6]
  T/C: 96 % of control
[7]
  T/C: 96 % of control
endpoint: mean survival time, dose: 100.0 mg/kg/injection, schedule: Q04DX003 (ip), vehicle: Klucel (hydroxypropylcellulose) (HPC)
  T/C: 101 % of control

## O=C(O)/C=C\C(=O)NCCCNC(=O)/C=C\C(=O)O
[1]
  T/C: 101 % of control
[2]
  T/C: 96 % of control
[3]
  T/C: 93 % of control

## CC(C)C([NH-])=O.CC(C)C([NH-])=O.[Cl][Pt+2][Cl]
endpoint: mean survival time, dose: 12.5 mg/kg/injection, schedule: Q04DX003 (ip), vehicle: saline
  T/C: 116 % of control
endpoint: mean survival time, dose: 25.0 mg/kg/injection, schedule: Q01DX009 (ip), vehicle: saline
  T/C: 102 % of control
endpoint: mean survival time, dose: 25.0 mg/kg/injection, schedule: Q04DX003 (ip), vehicle: saline
  T/C: 118 % of control
[4]
  T/C: 89 % of control
endpoint: mean survival time, dose: 50.0 mg/kg/injection, schedule: Q04DX003 (ip), vehicle: saline
  T/C: 112 % of control
endpoint: mean survival time, dose: 100.0 mg/kg/injection, schedule: Q04DX003 (ip), vehicle: saline
  T/C: 108 % of control and 118 % of control

## CN1CCN(CCCN2c3ccccc3Sc3ccc(Cl)cc32)CC1
[8]
  T/C: 104 % of control
[9]
  T/C: 90 % of control
endpoint: median survival time, dose: 6.25 mg/kg/injection, schedule: Q06HX032 (oral), vehicle: Klucel (hydroxypropylcellulose) (HPC)
  T/C: 97 % of control
endpoint: median survival time, dose: 6.25 mg/kg/injection, schedule: Q06HX044 (oral), vehicle: Klucel (hydroxypropylcellulose) (HPC)
  T/C: 91 % of control
endpoint: median survival time, dose: 12.5 mg/kg/injection, schedule: Q06HX032 (oral), vehicle: Klucel (hydroxypropylcellulose) (HPC)
  T/C: 98 % of control and 107 % of control
endpoint: median survival time, dose: 12.5 mg/kg/injection, schedule: Q06HX044 (oral), vehicle: Klucel (hydroxypropylcellulose) (HPC)
  T/C: 95 % of control and 96 % of control
endpoint: median survival time, dose: 25.0 mg/kg/injection, schedule: Q06HX032 (oral), vehicle: Klucel (hydroxypropylcellulose) (HPC)
  T/C: 97 % of control and 116 % of control
endpoint: median survival time, dose: 25.0 mg/kg/injection, schedule: Q06HX044 (oral), vehicle: Klucel (hydroxypropylcellulose) (HPC)
  T/C: 101 % of control and 76 % of control
endpoint: median survival time, dose: 50.0 mg/kg/injection, schedule: Q06HX032 (oral), vehicle: Klucel (hydroxypropylcellulose) (HPC)
  T/C: 57 % of control and 69 % of control
endpoint: median survival time, dose: 50.0 mg/kg/injection, schedule: Q06HX044 (oral), vehicle: Klucel (hydroxypropylcellulose) (HPC)
  T/C: 93 % of control and 35 % of control

## COc1ccc(S(=O)Nc2ccccc2)cc1 (configuration not stated)
endpoint: mean survival time, dose: 25.6 mg/kg/injection, schedule: Q04DX002 (ip), vehicle: saline with Tween-80
  T/C: 108 % of control
endpoint: mean survival time, dose: 64.0 mg/kg/injection, schedule: Q04DX002 (ip), vehicle: saline with Tween-80
  T/C: 115 % of control
endpoint: mean survival time, dose: 160.0 mg/kg/injection, schedule: Q04DX002 (ip), vehicle: saline with Tween-80
  T/C: 101 % of control
[10]
  T/C: 112 % of control
[11]
  T/C: 95 % of control

## CCCCCCCCCC(CCCCCCCC)SC(C)=O (configuration not stated)
[8]
  T/C: 108 % of control
[9]
  T/C: 103 % of control
endpoint: mean survival time, dose: 400.0 mg/kg/injection, schedule: Q04DX002 (ip), vehicle: Klucel (hydroxypropylcellulose) (HPC)
  T/C: 103 % of control

## CCCC(CCC)(C(=O)OCCOCCCl)c1cccc2ccccc12
[12]
  T/C: 89 % of control
[13]
  T/C: 99 % of control
[10]
  T/C: 95 % of control

## COC1OC2COc3ccccc3OC2C(NC(N)=S)C1S (configuration not stated)
[14]
  T/C: 102 % of control
[15]
  T/C: 95 % of control
[11]
  T/C: 102 % of control

## CP(C)(=S)P(C)(C)=S
[5]
  T/C: 98 % of control
endpoint: mean survival time, dose: 50.0 mg/kg/injection, schedule: Q04DX002 (ip), vehicle: Klucel (hydroxypropylcellulose) (HPC)
  T/C: 94 % of control
[8]
  T/C: 95 % of control and 112 % of control

## CCN(C(C)C)C(C)C
endpoint: mean survival time, dose: 25.0 mg/kg/injection, schedule: Q01DX009 (ip), vehicle: saline with Tween-80
  T/C: 101 % of control
endpoint: mean survival time, dose: 50.0 mg/kg/injection, schedule: Q01DX009 (ip), vehicle: saline with Tween-80
  T/C: 106 % of control
endpoint: mean survival time, dose: 100.0 mg/kg/injection, schedule: Q01DX009 (ip), vehicle: saline with Tween-80
  T/C: 96 % of control
[14]
  T/C: 93 % of control

## C1CN(SSN2CCOCC2)CCO1
endpoint: mean survival time, dose: 12.5 mg/kg/injection, schedule: Q04DX003 (ip), vehicle: Klucel (hydroxypropylcellulose) (HPC)
  T/C: 89 % of control
[6]
  T/C: 110 % of control
[7]
  T/C: 89 % of control
endpoint: mean survival time, dose: 200.0 mg/kg/injection, schedule: Q04DX003 (ip), vehicle: Klucel (hydroxypropylcellulose) (HPC)
  T/C: 102 % of control

## Cn1nnnc1/C(=C/c1ccccc1)C(=O)O
[14]
  T/C: 95 % of control
[15]
  T/C: 95 % of control
[11]
  T/C: 90 % of control

## Cc1[nH]c2ccccc2c(=O)c1CCC(=O)O
[12]
  T/C: 88 % of control
[13]
  T/C: 91 % of control
[10]
  T/C: 91 % of control
